Assay [1] relates to glioblastoma multiforme (GBM) cell lines. Particulars: Zhang et al. 2013; cited from earlier work.
For assay [2], the system named is TG2 relative to other human transglutaminases. Particulars: shown previously (Akbar et al. 2017); cited from earlier work.
Assay [3] has as its system SCC-13 cells. Particulars: shown previously; read-out: concentration reducing ECS cell invasion through Matrigel by ~50% relative to vehicle-treated cells; cited from earlier work.
In assay [4] the target is T1, hTG2 (Homo sapiens, UniProt P21980).
T1 sequence (P21980 1-687): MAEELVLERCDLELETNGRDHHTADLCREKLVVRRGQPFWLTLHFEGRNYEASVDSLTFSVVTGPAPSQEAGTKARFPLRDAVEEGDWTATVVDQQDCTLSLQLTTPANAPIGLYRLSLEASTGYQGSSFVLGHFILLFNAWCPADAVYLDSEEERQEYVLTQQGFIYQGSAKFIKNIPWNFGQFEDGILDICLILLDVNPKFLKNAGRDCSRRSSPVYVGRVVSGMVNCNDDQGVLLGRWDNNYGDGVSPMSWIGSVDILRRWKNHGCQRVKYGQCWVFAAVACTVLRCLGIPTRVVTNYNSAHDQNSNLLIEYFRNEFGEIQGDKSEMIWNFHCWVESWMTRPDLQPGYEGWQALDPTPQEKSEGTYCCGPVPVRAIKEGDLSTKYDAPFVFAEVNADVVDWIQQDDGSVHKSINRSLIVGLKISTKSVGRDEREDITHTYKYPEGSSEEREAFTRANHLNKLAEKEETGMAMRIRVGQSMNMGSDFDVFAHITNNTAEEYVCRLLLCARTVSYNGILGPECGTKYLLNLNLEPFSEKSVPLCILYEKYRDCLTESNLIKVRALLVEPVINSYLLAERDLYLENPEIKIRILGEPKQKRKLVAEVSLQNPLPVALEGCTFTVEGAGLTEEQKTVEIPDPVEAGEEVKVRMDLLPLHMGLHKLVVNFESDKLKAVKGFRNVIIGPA
Kind of assay: biochemical. Particulars: fit to saturation kinetics model, 25° C., pH 6.95, 100 μM AL5; for Ki: read-out: KI (converted); for kinact: read-out: kinact (converted); for kinact/KI: read-out: kinact/KI (converted). On the procedure:
The ability of the compounds to inhibit TG2 transamidase activity and the kinetics of TG2 inhibition were investigated using a colorimetric activity assay, as follows:
Colorimetric transamidase activity assay. The activities of hTG1, hTG2 and hTG6 were measured via a colorimetric assay using the chromogenic substrate Cbz-Glu(γ-p-nitrophenyl ester)Gly (AL5), as described (Leblanc, A. et al., “Kinetic studies of guinea pig liver transglutaminase reveal a general-base-catalyzed deacylation mechanism.” Biochemistry 2001, 40 (28), 8335-8342). Assays were conducted at 25° C. in 50 mM MOPS buffer (pH 6.95) containing 7.5 mM CaCl2. […] The substrate AL5 was prepared in as a stock solution in DMSO such that the final concentration of this co-solvent was constant at 2.5% v/v. Stock solutions of the inhibitors were made in water ranging in concentration from 100-500 μM. The reaction was initiated with the addition of enzyme, 0.10 μM hTG1, 0.25 μM hTG2 (4.6 mU/mL) or 0.32 μM hTG6. Formation of hydrolysis product, p-nitrophenolate (pNP), was monitored at 405 nm in a polystyrene 96-well microplate using a BioTek Synergy 4 plate reader. The observed first-order rate constants of inactivation (kobs) were determined via non-linear regression fit to a mono-exponential model (Eqn 1) of absorbance versus time curves. These rate constants (kobs) were in turn fit to a saturation kinetics model (Eqn 2), by non-linear regression, providing the kinetic parameters kinact and KI, as previously described by Stone and Hofsteenge (Stone, S. R. and Hofsteenge, J., “Specificity of activated human protein C.” Biochem. J. 1985, 230 (2), 497-502). […] Experiments were completed in triplicate at minimum.
Fitting of this time-dependent inactivation to a monoexponential equation gave first-order rate constants, kobs. […] In some cases, the kinetic data were fitted to a linear double reciprocal equation.

Assay [5] deals with SCC-13 cells. Kind of assay: ECS cell invasion through Matrigel (Transwell). The note with it: 0-100 μM inhibitor, 18 h, read-out: EC50 for inhibition of ECS invasion. It counts as cell-based. On the procedure:
One well-known property of tumour-initiating cells associated with cancer metastasis is the enhanced ability to invade Matrigel (collagen). For example, it has been shown that epidermal cancer stem (ECS) cells invade Matrigel more efficiently than non-stem cancer cells, and that these properties are associated with enhanced tumour formation (Adhikary, G. et al., PLoS ONE 2013, 8, e84324. https://doi.org/10.1371/journal.pone.0084324). We have shown previously that ˜20 μM of NC9 and 3.9 μM of VA4 can reduce ECS cell invasion through Matrigel by ˜50% relative to vehicle-treated cells (Akbar, A. et al., J. Med. Chem. 2017, 60, 7910-7927. https://doi.org/10.1021/acs.jmedchem.7b01070; Fisher, M. L. et al., Oncotarget 2015, 6, 20525-20539. https://doi.org/10.18632/oncotarget.3890).
Materials and Methods for cell invasion data. To measure cell invasion, Matrigel (Corning, catalogue no. 354234) was diluted to 250 μg/mL and 120 μL was added to the upper chambers of a Transwell plate (Corning, no. 353097, 1-cm diameter, 8-μm pore size) and allowed to solidify. SCC-13 cells were suspended in spheroid medium (Fisher, M. L. et al., Cancer Res. 2016, 76, 7265-7275. https://doi.org/10.1158/0008-5472.can-16-2032; Adhikary, G. et al., Carcinogenesis 2015, 36, 800-810. https://doi.org/10.1093/carcin/bgv064) containing 1% foetal calf serum (FCS), and 20,000 cells were plated into each upper chamber atop the Matrigel. The bottom chamber contained spheroid medium supplemented with 10% FCS and 0-100 μM of inhibitor. After incubation for 18 h in a 37° C. incubator, cells in the top chamber were removed with a swab and cells on the lower surface of the membrane were fixed with 4% paraformaldehyde and the nuclei were stained with 4′,6-diamidino-2-phenylindole. Cell number was counted in multiple fields (n=4) using a fluorescence microscope, normalized with respect to the number counted in the presence of vehicle only, and expressed as mean±standard deviation.

The target of assay [6] is T1, hTG2. The assay is described as follows: In vitro GTP binding assay (BODIPY GTP-γ-S fluorescence). The note with it: inhibitor 2×KI, 30 minutes at 25° C.; 3 μM BODIPY GTP-γ-S. On the procedure: Previously we proposed a mechanism of action for the NC9, VA4 and AA9 inhibitors based on their ability to react covalently with the open conformation of TG2, locking the enzyme in that conformation and thereby abolishing the enzyme's ability to bind GTP and act as a G-protein. […] We used the same in vitro GTP binding assay to measure the ability of representative phenylacetyl inhibitors 67 and 72 to abolish GTP binding, as follows:
In vitro GTP binding assay. GTP binding was measured using a method similar to that reported previously (McEwen, D. P. et al., “Fluorescent BODIPY-GTP analogs: Real-time measurement of nucleotide binding to G proteins.” Anal. Biochem. 2001, 291 (1), 109-117). […] The buffer was then exchanged to 100 mM MOPS (pH=7.0), 1 mM EGTA and 5 mM MgCl2 to remove calcium via dialysis using a 10-kDa molecular weight cut off membrane. The fluorescent GTP analog was added to give a final concentration of 3.0 μM and fluorescence was measured on a microplate reader after 10 minutes of incubation (Ex/Em: 490/520 nm).

The target in assay [7] is T1, hTG2. Particulars: shown previously; cited from earlier work.

Where two headings read alike, the source gives them in different places. Where a SMILES comes first, the peptide text is derived from it. [ ]: non-standard residue; d: D form. The star is where a group is joined. DON = [N-]=[N+]=CC(=O)CC[C@H](N)C(=O)O; Cbz = O=C(OCc1ccccc1)*

Consider `COC(=O)[C@H](CC(C)C)NC(=O)[C@@H]1CCCN1C(=O)[C@@H](NC(=O)[C@H](CCC(=O)C=[N+]=[N-])NC(=O)OCc1ccccc1)C(C)C` [Z-DON] (Cbz-[DON]VPL-OMe), for which the “proliferation of GBM cell lines” value in assay [1] is recorded as “reduce proliferation in two out of three”.
Turning to `CN(C)c1cccc2c(S(=O)(=O)NCCCCCN)cccc12` [monodansylcadaverine], in assay [1], the “proliferation of GBM cell lines” value is “reduce proliferation in two out of three”.
In the case of `C=CC(=O)NCCCC[C@H](NC(=O)OCc1ccccc1)C(=O)NCCOCCOCCNS(=O)(=O)c1cccc2c(N(C)C)cccc12` [NC9], the “selectivity for TG2 compared to the other major transglutaminase isozymes” value in assay [2] is reported as “good selectivity for TG2”. Besides, in assay [3], the EC50 was approximately 20 µM.
As a reminder, the Ki is a measure of affinity in units of concentration, obtained from inhibition or displacement. One may read the kinact as the maximal first-order rate at which the target is inactivated. Regarding `C=CC(=O)NCCCC[C@H](NC(=O)Cc1ccccc1Cl)C(=O)N1CCN(C(=O)c2cccc3ccccc23)CC1` [Inhibitor 76, (S)-N-(6-(4-(1-naphthoyl)piperazin-1-yl)-5-(2-(2-chlorophenyl)acetamido)-6-oxohexyl)acrylamide], in assay [4], the Ki was 18 ± 6.9 µM, the kinact was 0.0883 s⁻¹ and the kinact/KI was 4920 M⁻¹ s⁻¹. In assay [5], the EC50 amounted to 92 ± 2 µM.
As to `C=CC(=O)NCCCC[C@H](NC(=O)Cc1ccccc1)C(=O)N1CCN(C(=O)c2cccc3ccccc23)CC1` [Inhibitor 67, (S)-N-(6-(4-(1-naphthoyl)piperazin-1-yl)-6-oxo-5-(2-phenylacetamido)hexyl)acrylamide], in assay [6], the “inhibition of GTP binding of hTG2” value is “abolished the GTP binding ability”.
Consider `C=CC(=O)NCCCC[C@H](NC(=O)Cc1ccccc1Br)C(=O)N1CCN(C(=O)c2cccc3ccccc23)CC1` [Inhibitor 77, (S)-N-(6-(4-(1-naphthoyl)piperazin-1-yl)-5-(2-(2-bromophenyl)acetamido)-6-oxohexyl)acrylamide], for which, in assay [4], the Ki is 9.8 ± 1.5 µM, the kinact is 0.0517 s⁻¹ and the kinact/KI is 5170 M⁻¹ s⁻¹. In addition, in assay [5], the EC50 was 94 ± 2 µM.
With `C=CC(=O)NCCCC[C@H](NC(=O)OCc1ccccc1)C(=O)N1CCN(S(=O)(=O)c2cccc3c(N(C)C)cccc23)CC1` [VA4], in assay [7], the “suppression of TG2 binding of GTP-γ-S-FL BODIPY” value is “suppress the ability of TG2 to bind GTP-γ-S-FL BODIPY”. Moreover, the “selectivity for TG2 compared to the other major transglutaminase isozymes” value in assay [2] is given as “good selectivity for TG2”. For the same compound, in assay [3], the EC50 is 3.9 µM.

The record behind these values is US20240383869A1, “ARYLACETYL INHIBITORS OF TG2 AND USES THEREOF” (UNIVERSITY OF OTTAWA, priority 2021, published 2024).
